From ChEMBL document CHEMBL3792320, “Synthesis, biological evaluation and molecular docking studies of 2-amino-3,4,5-trimethoxyaroylindole derivatives as novel anticancer agents” (2016) come the findings set out here.

Active and inactive are the calls of the source. The calls are words filed in the database; no cut-off is given here.

Holding throughout (format): functional
For assay [1], the system named is MCF7. The assay is described as follows: Cytotoxicity against human MCF7 cells assessed as reduction in cell growth after 48 hrs by SRB assay.
In another assay the test system is HT-29. The assay is described as follows: Cytotoxicity against human HT-29 cells assessed as reduction in cell growth after 48 hrs by SRB assay.
Assay [2] deals with MCF7. As to the kind of experiment: Cytotoxicity against human MCF7 cells assessed as reduction in cell viability after 72 hrs by MTS assay. The following applies: MCF7, 72 h.

As to `COC(=O)c1[nH]c2ccccc2c1C(=O)c1cc(OC)c(OC)c(OC)c1N`, the GI50 in the assay with MCF7 [1] (MCF7, 48 h) was 0.193 µM; in the assay with HT-29 (HT-29, 48 h), 2.38 µM.
In the case of `CCOC(=O)c1[nH]c2ccccc2c1C(=O)c1cc(OC)c(OC)c(OC)c1N`, the GI50 was determined as 0.48 µM with MCF7 [1] (MCF7, 48 h) and 5.63 µM with HT-29 (HT-29, 48 h).
Take `COc1cc(Cc2c[nH]c3ccc(Cl)cc23)c(N)c(OC)c1OC`: the GI50 entry in the assay with MCF7 [1] and with HT-29 was “inactive” each time.
For `COc1cc(C(=O)c2c[nH]c3ccc(Cl)cc23)c(N)c(OC)c1OC`, the GI50 with MCF7 [1] (MCF7, 48 h) was determined as 0.321 µM; with HT-29 (HT-29, 48 h), 4.85 µM.
`COc1cc(C(=O)c2c[nH]c3cc(F)ccc23)c(N)c(OC)c1OC`: the GI50 with MCF7 [1] (MCF7, 48 h) turned out to be 42.8 µM; in the assay on HT-29 (HT-29, 48 h), 64.2 µM.
For `COc1ccc2c(C(=O)c3cc(OC)c(OC)c(OC)c3)c[nH]c2c1`, the GI50 with MCF7 [2] came out at 0.007 µM.
Consider `CCOC(=O)c1[nH]c2ccc(Br)cc2c1C(=O)c1cc(OC)c(OC)c(OC)c1N`, for which the GI50 in the assay on MCF7 [1] (MCF7, 48 h) was found to be 0.425 µM; in the assay with HT-29 (HT-29, 48 h), 5.38 µM.
For `COc1cc(C(=O)c2c[nH]c3cccc(OC)c23)c(N)c(OC)c1OC` the same measures were above 100 µM and above 100 µM.
In the case of `COc1cc2[nH]cc(C(=O)c3cc(OC)c(OC)c(OC)c3N)c2cc1OC`, the GI50 in the assay with MCF7 [1] (MCF7, 48 h) was 38.5 µM; in the assay on HT-29 (HT-29, 48 h), 24.4 µM.
Regarding `COc1ccc(/C=C\c2cc(OC)c(OC)c(OC)c2)cc1O` [COMBRETASTATIN A4], the GI50 is 0.025 µM in the assay on MCF7 [1] (MCF7, 48 h) and 0.26 µM in the assay on HT-29 (HT-29, 48 h).
In the case of `COc1cc(C(=O)c2c[nH]c3ccc(Br)cc23)c(N)c(OC)c1OC`, the GI50 in the assay on MCF7 [1] (MCF7, 48 h) worked out at 0.36 µM; in the assay with HT-29 (HT-29, 48 h), 3.83 µM.
The like results for `COC(=O)c1[nH]c2ccc(Cl)cc2c1C(=O)c1cc(OC)c(OC)c(OC)c1N` were, in that order, 0.171 µM and 2.14 µM.
For `COc1cc(Cc2c[nH]c3cc(F)ccc23)c(N)c(OC)c1OC`, the GI50 result with MCF7 [1] and with HT-29 was “inactive” throughout.
Turning to `COc1ccc2[nH]cc(Cc3cc(OC)c(OC)c(OC)c3N)c2c1`, the GI50 was 32.8 µM in the assay on MCF7 [1] (MCF7, 48 h) and above 100 µM in the assay with HT-29 (HT-29, 48 h).
With `COc1cc(Cc2c[nH]c3cccc(OC)c23)c(N)c(OC)c1OC`, the GI50 result with MCF7 [1] and in the assay on HT-29 was “inactive” each time.
As for `COc1ccc2[nH]cc(C(=O)c3cc(OC)c(OC)c(OC)c3N)c2c1`, the GI50 in the assay on MCF7 [1] (MCF7, 48 h) was found to be 0.528 µM; with HT-29 (HT-29, 48 h) it was 0.95 µM.
As for `COc1cc(Cc2c[nH]c3ccc(Br)cc23)c(N)c(OC)c1OC`, the GI50 entry in the assay with MCF7 [1] and with HT-29 was “inactive” each time.
For `COc1ccc2c(Cc3cc(OC)c(OC)c(OC)c3N)c[nH]c2c1`, the GI50 in the assay with MCF7 [1] (MCF7, 48 h) stood at 1.83 µM; with HT-29 (HT-29, 48 h), 74.8 µM.
For `COC(=O)c1[nH]c2ccc(OC)cc2c1C(=O)c1cc(OC)c(OC)c(OC)c1N` the same measures were 0.102 µM and 1.24 µM.
For `CCOC(=O)c1[nH]c2ccc(Cl)cc2c1C(=O)c1cc(OC)c(OC)c(OC)c1N`, the GI50 was determined as 0.59 µM in the assay on MCF7 [1] (MCF7, 48 h) and 6.84 µM in the assay with HT-29 (HT-29, 48 h).
In the case of `COc1cc(C(=O)c2c[nH]c3c(OC)cccc23)c(N)c(OC)c1OC`, the GI50 was 9.96 µM with MCF7 [1] (MCF7, 48 h) and 48.6 µM with HT-29 (HT-29, 48 h).
With `COc1cc(C(=O)c2c[nH]c3ccccc23)c(N)c(OC)c1OC`, the concentration for 50% growth inhibition (GI50) turned out to be 0.9 µM in the assay with MCF7 [1] (MCF7, 48 h) and 9.8 µM in the assay with HT-29 (HT-29, 48 h).
With `COc1cc(Cc2c[nH]c3c(OC)cccc23)c(N)c(OC)c1OC`, the GI50 entry with MCF7 [1] and in the assay with HT-29 was “inactive” each time.
For `COc1cc2[nH]cc(Cc3cc(OC)c(OC)c(OC)c3N)c2cc1OC`, the GI50 entry with MCF7 [1] and in the assay with HT-29 was “inactive” each time.
As for `CCOC(=O)c1[nH]c2ccc(OC)cc2c1C(=O)c1cc(OC)c(OC)c(OC)c1N`, the GI50 with MCF7 [1] (MCF7, 48 h) was determined as 0.54 µM; in the assay with HT-29 (HT-29, 48 h) it was 5.15 µM.
For `COC(=O)c1[nH]c2ccc(Br)cc2c1C(=O)c1cc(OC)c(OC)c(OC)c1N` the same measures were 0.124 µM and 1.94 µM.
Turning to `COc1cc(C(=O)c2c[nH]c3ccc(C)cc23)c(N)c(OC)c1OC`, the GI50 was 12.3 µM with MCF7 [1] (MCF7, 48 h) and above 100 µM with HT-29 (HT-29, 48 h).
Turning to `COc1cc(Cc2c[nH]c3ccc(C)cc23)c(N)c(OC)c1OC`, the GI50 result with MCF7 [1] and in the assay on HT-29 was “inactive” each time.
In the case of `COc1ccc2c(C(=O)c3cc(OC)c(OC)c(OC)c3N)c[nH]c2c1`, the GI50 in the assay on MCF7 [1] (MCF7, 48 h) is 0.013 µM; in the assay with HT-29 (HT-29, 48 h), 0.143 µM.
For `COc1cc(Cc2c[nH]c3ccccc23)c(N)c(OC)c1OC` the same measures were 45 µM and above 100 µM.
